# Test system: human C3A liver cells
# Assay: Microarray differential gene expression in human C3A liver cell cultures treated with steroids
# Assay type: cell-based
# Text: Incyte clones represent template sequences derived from the LWESEQ GOLD assembled human sequence database (Incyte Genomics). In cases where more than one clone was available for a particular template, the 5′-most clone in the template was used on the microarray. The HUMAN GENOME GEM series 1-4 microarrays (Incyte Genomics) contain 28,626 array elements which represent 10,068 annotated clusters and 18,558 unannotated clusters. For the UNIGEM series microarrays (Incyte Genomics), Incyte clones were mapped to non-redundant Unigene clusters (Unigene database (build 46), NCBI; Shuler (1997) J Mol Med 75:694-698), and the 5′ clone with the strongest BLAST alignment (at least 90% identity and 100 bp overlap) was chosen, verified, and used in the construction of the microarray. The UNIGEM V microarray (Incyte Genomics) contains 7075 array elements which represent 4610 annotated genes and 2,184 unannotated clusters.
# To construct microarrays, cDNAs were amplified from bacterial cells using primers complementary to vector sequences flanking the cDNA insert. […] Amplified cDNAs were then purified using […]-400 columns (APB). Purified cDNAs were immobilized on polymer-coated glass slides. Glass microscope slides (Corning, Corning N.Y.) were cleaned by ultrasound in 0.1% SDS and acetone, with extensive distilled water washes between and after treatments. Glass slides were etched in 4% hydrofluoric acid (VWR Scientific Products, West Chester Pa.), washed thoroughly in distilled water, and coated with 0.05% aminopropyl silane (Sigma Aldrich) in 95% ethanol. Coated slides were cured in a 110° C. oven. cDNAs were applied to the coated glass substrate using a procedure described in U.S. Pat. No. 5,807,522. One microliter of the cDNA at an average concentration of 100 ng/μl was loaded into the open capillary printing element by a high-speed robotic apparatus which then deposited about 5 nl of cDNA per slide.
# Microarrays were UV-crosslinked using a […] UV-crosslinker (Stratagene), and then washed at room temperature once in 0.2% SDS and three times in distilled water. Non-specific binding sites were blocked by incubation of microarrays in 0.2% casein in phosphate buffered saline (Tropix, Bedford Mich.) for 30 minutes at 60° C. followed by washes in 0.2% SDS and distilled water as before.
# In all cases, mRNA from untreated early confluent C3A cells were prepared in parallel as described below.
# Cells were harvested and lysed in 1 ml of TRIZOL reagent (5×10^6 cells/ml; Life Technologies). Lysates were vortexed thoroughly, incubated at room temperature for 2-3 minutes, and extracted with 0.5 ml chloroform. The extract was mixed, incubated at room temperature for 5 minutes, and centrifuged at 15,000 rpm for 15 minutes at 4° C. The aqueous layer was collected, and an equal volume of isopropanol was added. Samples were mixed, incubated at room temperature for 10 minutes, and centrifuged at 15,000 rpm for 20 minutes at 4° C. The supernatant was removed, and the RNA pellet was washed with 1 ml of 70% ethanol, centrifuged at 15,000 rpm at 4° C., and resuspended in RNAse-free water. The concentration of the RNA was determined by measuring the optical density at 260 nm.
# Poly(A) RNA was prepared using an OLIGOTEX mRNA kit (Qiagen) with the following modifications: OLIGOTEX beads were washed in tubes instead of on spin columns, resuspended in elution buffer, and then loaded onto spin columns to recover mRNA. To obtain maximum yield, the mRNA was eluted twice.
# Each poly(A) RNA sample was reverse transcribed using MMLV reverse-transcriptase, 0.05 pg/μl oligo-d(T) primer (21mer), 1× first strand buffer, 0.03 units/ul RNAse inhibitor, 500 uM dATP, 500 uM dGTP, 500 uM dTTP, 40 uM dCTP, and 40 uM either dCTP-Cy3 or dCTP-Cy5 (APB).
structure (smiles),measurement,setting,value
C[C@H]1C[C@H]2[C@@H]3CCC4=CC(=O)C=C[C@]4(C)[C@@]3(F)[C@@H](O)C[C@]2(C)[C@@]1(O)C(=O)CO [betamethasone],Ave DE [log2] (C3A treated with steroid),Clone ID 220378,0.57 log2
same,Ave DE [log2] (C3A treated with steroid),Clone ID 615776,1.11 log2
same,Ave DE [log2] (C3A treated with steroid),Clone ID 619447,0.33 log2
same,Ave DE [log2] (C3A treated with steroid),Clone ID 686993,0.51 log2
same,Ave DE [log2] (C3A treated with steroid),Clone ID 689296,1.12 log2
same,Ave DE [log2] (C3A treated with steroid),Clone ID 1323327,1.00 log2
same,Ave DE [log2] (C3A treated with steroid),Clone ID 1329625,0.91 log2
same,Ave DE [log2] (C3A treated with steroid),Clone ID 1496011,0.60 log2
same,Ave DE [log2] (C3A treated with steroid),Clone ID 1501410,−0.98 log2
same,Ave DE [log2] (C3A treated with steroid),Clone ID 1600180,0.77 log2
same,Ave DE [log2] (C3A treated with steroid),Clone ID 1798594,1.37 log2
same,Ave DE [log2] (C3A treated with steroid),Clone ID 1816768,0.24 log2
same,Ave DE [log2] (C3A treated with steroid),Clone ID 1824860,0.70 log2
same,Ave DE [log2] (C3A treated with steroid),Clone ID 1857044,0.89 log2
same,Ave DE [log2] (C3A treated with steroid),Clone ID 1951845,1.02 log2
same,Ave DE [log2] (C3A treated with steroid),Clone ID 2025128,1.20 log2
same,Ave DE [log2] (C3A treated with steroid),Clone ID 2046717,0.83 log2
same,Ave DE [log2] (C3A treated with steroid),Clone ID 2078880,−0.75 log2
same,Ave DE [log2] (C3A treated with steroid),Clone ID 2170820,1.30 log2
same,Ave DE [log2] (C3A treated with steroid),Clone ID 2173002,0.98 log2
same,Ave DE [log2] (C3A treated with steroid),Clone ID 2173973,0.81 log2
same,Ave DE [log2] (C3A treated with steroid),Clone ID 2189061,0.23 log2
same,Ave DE [log2] (C3A treated with steroid),Clone ID 2222155,0.50 log2
same,Ave DE [log2] (C3A treated with steroid),Clone ID 2343836,0.63 log2
same,Ave DE [log2] (C3A treated with steroid),Clone ID 2404746,1.46 log2
same,Ave DE [log2] (C3A treated with steroid),Clone ID 2407620,0.02 log2
same,Ave DE [log2] (C3A treated with steroid),Clone ID 2430165,0.68 log2
same,Ave DE [log2] (C3A treated with steroid),Clone ID 2482388,1.14 log2
same,Ave DE [log2] (C3A treated with steroid),Clone ID 2660756,1.26 log2
same,Ave DE [log2] (C3A treated with steroid),Clone ID 2687356,1.23 log2
same,Ave DE [log2] (C3A treated with steroid),Clone ID 2695371,0.95 log2
same,Ave DE [log2] (C3A treated with steroid),Clone ID 2703282,−0.85 log2
same,Ave DE [log2] (C3A treated with steroid),Clone ID 2734007,1.04 log2
same,Ave DE [log2] (C3A treated with steroid),Clone ID 2753065,0.75 log2
same,Ave DE [log2] (C3A treated with steroid),Clone ID 3229449,1.05 log2
same,Ave DE [log2] (C3A treated with steroid),Clone ID 3474091,0.23 log2
same,Ave DE [log2] (C3A treated with steroid),Clone ID 3528232,0.80 log2
same,Ave DE [log2] (C3A treated with steroid),Clone ID 3729593,0.55 log2
same,Ave DE [log2] (C3A treated with steroid),Clone ID 3876612,0.19 log2
same,Ave DE [log2] (C3A treated with steroid),Clone ID 3973687,1.47 log2
same,Ave DE [log2] (C3A treated with steroid),Clone ID 4087621,1.09 log2
same,Ave DE [log2] (C3A treated with steroid),Clone ID 4215034,1.50 log2
same,Ave DE [log2] (C3A treated with steroid),Clone ID 4403805,1.19 log2
same,Ave DE [log2] (C3A treated with steroid),Clone ID 4855265,1.24 log2
same,Ave DE [log2] (C3A treated with steroid),Clone ID 5206821,0.50 log2
same,Ave DE [log2] (C3A treated with steroid),Clone ID 5398701,1.10 log2
same,Ave DE [log2] (C3A treated with steroid),Clone ID 5521873,0.77 log2
same,Ave DE [log2] (C3A treated with steroid),Clone ID 5543385,1.15 log2
CC#C[C@]1(O)CC[C@H]2[C@@H]3CCC4=CC(=O)CCC4=C3[C@@H](c3ccc(N(C)C)cc3)C[C@@]21C [Mifepristone],Ave DE [log2] (C3A treated with steroid),Clone ID 4543123,−1.20 log2
same,Ave DE [log2] (C3A treated with steroid),Clone ID 5426158,−0.93 log2
C[C@@H]1C[C@H]2[C@@H]3CCC4=CC(=O)C=C[C@]4(C)[C@@]3(F)[C@@H](O)C[C@]2(C)[C@@]1(O)C(=O)CO [dexamethasane],Ave DE [log2] (C3A treated with steroid),Clone ID 2253102,−1.20 log2
C[C@]12C=CC(=O)C=C1CC[C@@H]1[C@@H]2C(=O)C[C@@]2(C)[C@H]1CC[C@]2(O)C(=O)CO [prednisone],Ave DE [log2] (C3A treated with steroid),Clone ID 998615,0.91 log2
same,Ave DE [log2] (C3A treated with steroid),Clone ID 1329625,0.42 log2
same,Ave DE [log2] (C3A treated with steroid),Clone ID 1401312,−0.82 log2
same,Ave DE [log2] (C3A treated with steroid),Clone ID 1496011,0.51 log2
same,Ave DE [log2] (C3A treated with steroid),Clone ID 1611629,0.94 log2
same,Ave DE [log2] (C3A treated with steroid),Clone ID 1679595,0.99 log2
same,Ave DE [log2] (C3A treated with steroid),Clone ID 1716458,1.03 log2
same,Ave DE [log2] (C3A treated with steroid),Clone ID 1740179,0.86 log2
same,Ave DE [log2] (C3A treated with steroid),Clone ID 1946155,0.92 log2
same,Ave DE [log2] (C3A treated with steroid),Clone ID 1951845,0.79 log2
same,Ave DE [log2] (C3A treated with steroid),Clone ID 2086783,−1.13 log2
same,Ave DE [log2] (C3A treated with steroid),Clone ID 2088104,−1.15 log2
same,Ave DE [log2] (C3A treated with steroid),Clone ID 2095329,−1.21 log2
same,Ave DE [log2] (C3A treated with steroid),Clone ID 2227273,1.01 log2
same,Ave DE [log2] (C3A treated with steroid),Clone ID 2252884,−1.03 log2
same,Ave DE [log2] (C3A treated with steroid),Clone ID 2253102,−1.13 log2
same,Ave DE [log2] (C3A treated with steroid),Clone ID 2269058,−1.06 log2
same,Ave DE [log2] (C3A treated with steroid),Clone ID 2285521,−1.09 log2
same,Ave DE [log2] (C3A treated with steroid),Clone ID 2287703,−1.07 log2
same,Ave DE [log2] (C3A treated with steroid),Clone ID 2430165,0.23 log2
same,Ave DE [log2] (C3A treated with steroid),Clone ID 2607834,0.29 log2
same,Ave DE [log2] (C3A treated with steroid),Clone ID 2698777,−1.25 log2
same,Ave DE [log2] (C3A treated with steroid),Clone ID 2734007,0.88 log2
same,Ave DE [log2] (C3A treated with steroid),Clone ID 2908212,0.42 log2
same,Ave DE [log2] (C3A treated with steroid),Clone ID 3960194,1.01 log2
same,Ave DE [log2] (C3A treated with steroid),Clone ID 4252872,0.77 log2
same,Ave DE [log2] (C3A treated with steroid),Clone ID 4543123,1.27 log2
same,Ave DE [log2] (C3A treated with steroid),Clone ID 4630674,0.86 log2
same,Ave DE [log2] (C3A treated with steroid),Clone ID 4894508,−1.03 log2
same,Ave DE [log2] (C3A treated with steroid),Clone ID 5102951,0.85 log2
same,Ave DE [log2] (C3A treated with steroid),Clone ID 5326983,0.50 log2
same,Ave DE [log2] (C3A treated with steroid),Clone ID 5543385,1.00 log2
C[C@H]1C[C@H]2[C@@H]3CCC4=CC(=O)C=C[C@]4(C)[C@@]3(Cl)[C@@H](O)C[C@]2(C)[C@@]1(O)C(=O)CO [beclomethasane],Ave DE [log2] (C3A treated with steroid),Clone ID 5398701,0.82 log2
C#C[C@]1(O)CC[C@H]2[C@@H]3CCC4=Cc5oncc5C[C@]4(C)[C@H]3CC[C@@]21C [donozol],Ave DE [log2] (C3A treated with steroid),Clone ID 2407620,−0.26 log2
same,Ave DE [log2] (C3A treated with steroid),Clone ID 3474091,−0.29 log2

# From patent US6673549B1, “Genes expressed in C3A liver cell cultures treated with steroids” (Incyte Corporation, priority 2000, dated 2004)
